Measurements reported in publication PMC8911579, “(−)-Naringenin 4′,7-dimethyl Ether Isolated from Nardostachys jatamansi Relieves Pain through Inhibition of Multiple Channels” (Molecules, 2022).

Columns and labels:
[1] = tested on: acutely isolated mouse small-diameter DRG neurons; experiment: whole-cell current-clamp, action potential firing in DRG neurons; type: cell-based; details: for action potential amplitude: 200 pA current injection, 500 ms, control 98.00 ± 6.19 mV
Text: To investigate the underlying mechanism of (−)-NRG-DM-mediated analgesic activity, whole-cell current-clamp technology was applied to examine the effects of (−)-NRG-DM on the action potential firing in acutely isolated mouse small-diameter DRG neurons. The action potentials were evoked by a current injection of 200 pA for a 500 ms period. The threshold was defined by the first amplitude at which an action potential with a membrane potential larger than 0 mV was produced, and the amplitude was defined as the peak relative to the resting membrane potential. […] The amplitudes were reduced from 98.00 ± 6.19 mV to 95.00 ± 5.65 mV, 93.40 ± 8.27 mV, 86.80 ± 9.75 mV, and 74.40 ± 7.08 mV after perfusion of 1 μM, 3 μM, 10 μM, and 30 μM (−)-NRG-DM, respectively (Figure 4C, n = 5). Current threshold, the injection current required to elicit a single all-or-none action potential, was determined by applying 500 ms depolarizing currents of increasing magnitude. […] The inhibitory effects of (−)-NRG-DM on the firing frequency and the amplitudes of action potentials were partially reversible after washout.
(§1) Dorsal root ganglia (DRG) were dissected from male C57BL/6 mice aged 4~6 weeks. The ganglia were first cut into small pieces and then digested at 37 °C for 20 min in DMEM containing 1 mg/mL collagenase type I and 0.25 mg/mL trypsin (Sigma-Aldrich). Subsequently, the digested small fragments were terminated and resuspended with DMEM/F12 growth medium (Gibco) supplemented with 10% fetal bovine serum (FBS) (Gibco). Finally, the dissociated DRG neurons were seeded onto 24-well plates with poly-L-lysine-coated coverslips and placed in a 37 °C, 5% CO2 incubator for at least 1 h before electrophysiological experiments.

[2] = tested on: mustard oil-induced colorectal pain; experiment: mustard oil-induced mouse colorectal pain model; type: in vivo, C57BL/6 mice; details: 30 min observation
Description: The dose-dependent relief of somatic pain in the formalin model prompted us to ask whether it could attenuate the visceral pain. Thereby, we constructed the mustard oil-induced mouse colorectal pain model as previously described. […] As those observed in intraplantar formalin-induced pain, (−)-NRG-DM dose dependently relieved intracolonic mustard oil-caused writhing (Figure 3A). After intraperitoneal application of 30 mg/kg and 50 mg/kg (−)-NRG-DM, the writhing number reduced by approximately 60% and 80%, respectively (Figure 3B).
Male C57BL/6 mice, weighing 23~25 g, were randomly assigned into 3 groups (n = 10 for each group) and placed in a transparent observation chamber for at least 20 min prior to the experiment. Mice were intraperitoneally administrated with vehicle or (−)-NRG-DM (30 or 50 mg/kg) 30 min before the injection of diluted mustard. Subsequently, 50 µL of diluted mustard oil solution (0.75% in 70% ethanol) was intracolonically administrated and the number of pain responses was counted for 30 min. In the present study, postures defined as pain-related behaviors were in agreement with previous descriptions: (1) licking of the abdomen, (2) stretching the abdomen, (3) squashing of lower abdomen against the floor, (4) abdominal wall retractions.

[3] = tested on: transient outward potassium currents (IA) in DRG neurons; experiment: whole-cell patch-clamp, transient outward potassium currents in DRG neurons; type: cell-based; details: Mus musculus, DRG neuron; n = 5
Text: (§2) The currents in mouse DRG neurons can be separated into IA and IK. They could be distinguished by applying voltage steps from a holding potential of −50 mV, at which IA was almost completely inactivated, while IK remained unchanged. Thereby, IA could be separated by subtracting IK from the total potassium currents. According to these electrophysiological characteristics, the effects of (−)-NRG-DM on potassium currents were examined (Figure 5A). […] Additionally, the effects of (−)-NRG-DM on the kinetics of the Kv channels were further characterized. The Kv currents were elicited by multiple 1500 ms depolarization pulses ranging from −80 mV to +90 mV in 10 mV increments from a holding potential of −80 mV. […] The values of V1/2 in the absence and presence of 10 µM (−)-NRG-DM were −6.43 ± 1.21 mV and −8.08 ± 2.02 mV, respectively (Figure 5D).
as §1, with “Finally, the dissociated DRG neurons were seeded onto 24-well plates with poly-L-lysine-coated coverslips and placed in a 37 °C, 5% CO2 incubator for at least 1 h before electrophysiological experiments.” left out

TRPA1 channels = biological target: T1, TRPA1 channels (Homo sapiens, UniProt O75762); experiment: whole-cell patch-clamp, TRPA1 stably expressed in HEK293 cells; type: cell-based; details: 30 µM
T1 construct: expressed in transfected cells
T1 sequence (O75762 whole entry): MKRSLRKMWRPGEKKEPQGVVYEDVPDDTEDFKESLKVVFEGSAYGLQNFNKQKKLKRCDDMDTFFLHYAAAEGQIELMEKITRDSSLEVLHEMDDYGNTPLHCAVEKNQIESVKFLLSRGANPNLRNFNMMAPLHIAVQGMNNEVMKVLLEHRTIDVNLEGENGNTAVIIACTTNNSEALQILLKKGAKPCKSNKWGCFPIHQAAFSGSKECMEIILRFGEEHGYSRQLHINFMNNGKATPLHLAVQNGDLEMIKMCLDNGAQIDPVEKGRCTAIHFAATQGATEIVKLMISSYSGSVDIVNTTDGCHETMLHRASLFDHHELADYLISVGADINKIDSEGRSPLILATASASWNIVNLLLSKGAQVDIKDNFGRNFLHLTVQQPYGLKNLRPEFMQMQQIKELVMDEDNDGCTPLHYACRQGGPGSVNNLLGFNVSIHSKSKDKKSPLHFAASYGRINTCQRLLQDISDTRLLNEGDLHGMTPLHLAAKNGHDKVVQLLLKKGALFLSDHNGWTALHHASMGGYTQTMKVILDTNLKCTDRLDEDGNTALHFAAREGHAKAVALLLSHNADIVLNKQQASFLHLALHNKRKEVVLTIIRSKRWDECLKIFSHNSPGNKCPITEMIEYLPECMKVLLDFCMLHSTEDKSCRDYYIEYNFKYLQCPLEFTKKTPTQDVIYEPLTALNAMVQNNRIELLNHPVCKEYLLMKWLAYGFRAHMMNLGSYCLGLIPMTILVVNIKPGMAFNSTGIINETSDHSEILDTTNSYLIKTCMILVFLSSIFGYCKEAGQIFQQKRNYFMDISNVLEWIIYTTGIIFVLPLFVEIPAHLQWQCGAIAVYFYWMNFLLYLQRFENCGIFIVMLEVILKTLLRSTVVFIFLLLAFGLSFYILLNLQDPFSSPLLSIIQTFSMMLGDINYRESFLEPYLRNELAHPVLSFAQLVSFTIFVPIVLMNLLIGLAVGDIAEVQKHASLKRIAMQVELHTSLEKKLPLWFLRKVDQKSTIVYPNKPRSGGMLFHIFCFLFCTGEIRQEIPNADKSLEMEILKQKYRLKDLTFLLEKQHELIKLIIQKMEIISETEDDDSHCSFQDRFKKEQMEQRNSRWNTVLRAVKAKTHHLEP

Nav1.7 channel = Nav1.7 channel (Homo sapiens, UniProt Q15858); experiment: whole-cell patch-clamp, Nav1.7 stably expressed in HEK293 cells
Nav1.7 channel, sequence (Q15858 whole entry): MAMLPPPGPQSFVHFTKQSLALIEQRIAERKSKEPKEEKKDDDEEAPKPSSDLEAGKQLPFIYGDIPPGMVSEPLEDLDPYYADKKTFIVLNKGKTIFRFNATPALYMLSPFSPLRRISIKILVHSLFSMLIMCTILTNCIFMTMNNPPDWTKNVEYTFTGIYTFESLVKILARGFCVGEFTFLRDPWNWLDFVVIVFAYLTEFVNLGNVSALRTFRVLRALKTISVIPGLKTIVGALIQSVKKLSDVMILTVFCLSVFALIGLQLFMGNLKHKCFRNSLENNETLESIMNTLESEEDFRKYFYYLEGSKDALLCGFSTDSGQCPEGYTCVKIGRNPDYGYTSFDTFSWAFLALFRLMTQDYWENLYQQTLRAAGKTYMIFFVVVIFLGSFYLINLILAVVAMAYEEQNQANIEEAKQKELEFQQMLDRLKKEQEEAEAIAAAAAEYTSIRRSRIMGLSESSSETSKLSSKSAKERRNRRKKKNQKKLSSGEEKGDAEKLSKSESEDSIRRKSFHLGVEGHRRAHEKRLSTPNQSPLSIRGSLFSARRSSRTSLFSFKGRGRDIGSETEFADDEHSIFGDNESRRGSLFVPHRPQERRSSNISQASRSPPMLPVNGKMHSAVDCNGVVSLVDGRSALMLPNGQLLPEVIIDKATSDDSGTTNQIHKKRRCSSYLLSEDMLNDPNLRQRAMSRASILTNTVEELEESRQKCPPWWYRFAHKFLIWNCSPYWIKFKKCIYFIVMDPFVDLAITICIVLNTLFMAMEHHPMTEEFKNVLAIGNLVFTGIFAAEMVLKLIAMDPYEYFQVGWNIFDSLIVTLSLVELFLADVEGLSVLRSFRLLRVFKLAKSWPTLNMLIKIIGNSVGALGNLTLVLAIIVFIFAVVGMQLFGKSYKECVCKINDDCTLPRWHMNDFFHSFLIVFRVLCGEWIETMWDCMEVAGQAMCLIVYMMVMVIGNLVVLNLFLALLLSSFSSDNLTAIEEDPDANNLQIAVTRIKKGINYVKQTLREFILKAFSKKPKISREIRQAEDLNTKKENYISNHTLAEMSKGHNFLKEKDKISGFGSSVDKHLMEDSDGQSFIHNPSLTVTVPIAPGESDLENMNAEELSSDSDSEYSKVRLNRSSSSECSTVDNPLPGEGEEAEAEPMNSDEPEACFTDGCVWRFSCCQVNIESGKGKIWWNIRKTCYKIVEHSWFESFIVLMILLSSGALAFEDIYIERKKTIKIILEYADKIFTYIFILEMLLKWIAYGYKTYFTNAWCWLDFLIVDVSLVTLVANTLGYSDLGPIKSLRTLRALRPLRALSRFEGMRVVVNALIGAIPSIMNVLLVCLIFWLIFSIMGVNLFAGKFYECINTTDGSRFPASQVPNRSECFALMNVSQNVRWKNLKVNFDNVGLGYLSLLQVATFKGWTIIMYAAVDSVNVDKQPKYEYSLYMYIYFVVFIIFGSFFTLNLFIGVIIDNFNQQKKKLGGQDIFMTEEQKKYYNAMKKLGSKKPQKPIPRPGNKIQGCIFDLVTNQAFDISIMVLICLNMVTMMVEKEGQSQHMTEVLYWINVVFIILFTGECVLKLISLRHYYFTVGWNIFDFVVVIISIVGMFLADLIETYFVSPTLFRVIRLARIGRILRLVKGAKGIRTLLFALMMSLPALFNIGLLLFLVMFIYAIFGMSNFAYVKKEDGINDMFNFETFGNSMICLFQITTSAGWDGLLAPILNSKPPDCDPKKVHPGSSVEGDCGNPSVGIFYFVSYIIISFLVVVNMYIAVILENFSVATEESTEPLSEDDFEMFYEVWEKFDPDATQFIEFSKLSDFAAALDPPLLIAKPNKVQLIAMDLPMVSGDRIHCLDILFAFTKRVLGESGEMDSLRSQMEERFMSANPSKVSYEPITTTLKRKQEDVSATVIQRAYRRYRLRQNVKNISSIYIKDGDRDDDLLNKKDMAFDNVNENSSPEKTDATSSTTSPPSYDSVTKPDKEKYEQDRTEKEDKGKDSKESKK

[4] = tested on: TTX-resistant (TTX-R) currents in small-diameter DRG neurons; type: cell-based, mouse; details: 300 nM TTX
[5] = tested on: delayed rectifier potassium currents (IK) in DRG neurons; experiment: whole-cell patch-clamp, delayed rectifier potassium currents in DRG neurons; type: cell-based, mouse
Text: as §2
as §1, with “Finally, the dissociated DRG neurons were seeded onto 24-well plates with poly-L-lysine-coated coverslips and placed in a 37 °C, 5% CO2 incubator for at least 1 h before electrophysiological experiments.” left out

[6] = tested on: Kv channels in DRG neurons; experiment: activation kinetics of Kv currents in DRG neurons; type: cell-based, mouse; details: in presence of 10 µM; control −6.43 ± 1.21 mV
Text: as §2

COc1ccc([C@H]2CC(=O)c3c(O)cc(OC)cc3O2)cc1 [(−)-NRG-DM, (−)-naringenin 4′,7-dimethyl ether]
concentration at which significant reduction in number of action potentials started [1]: 10 µM
action potential amplitude ([1]; 1 μM): 95.00 ± 5.65 mV
action potential amplitude ([1]; 3 μM): 93.40 ± 8.27 mV
action potential amplitude ([1]; 10 μM): 86.80 ± 9.75 mV
action potential amplitude ([1]; 30 μM): 74.40 ± 7.08 mV
firing frequency of DRG neurons ([1]; 1~30 μM): dose-dependently inhibited the firing frequency
reduction of writhing number ([2]; 30 mg/kg i.p.): approximately 60%
reduction of writhing number ([2]; 50 mg/kg i.p.): ~80%
IC50 [3]: 119.9 ± 0.03 µM
effect on TRPA1 currents and AITC-induced TRPA1 currents (TRPA1 channels): did not enhance any TRPA1 currents or inhibit AITC-induced TRPA1 currents either
inhibitory ratio (Nav1.7 channel; 30 µM): 39 ± 5%
IDrug/IControl (Nav1.7 channel; 30 μM, HEK293): 0.61 ± 0.05
selectivity Nav1.7 vs Nav1.8 (Nav1.7 channel; 30 μM, no significant difference between Nav1.7 and Nav1.8): non-selective Nav channel inhibitor
V1/2 of activation, TTX-R currents ([4]; 30 μM, control −16.82 ± 0.72 mV): −20.14 ± 0.87 mV
V1/2 of steady-state inactivation, TTX-R currents ([4]; 30 µM, control −39.43 ± 0.66 mV): −49.99 ± 0.67 mV
IC50 ([5]; Mus musculus, DRG neuron, n = 5): 5.1 ± 0.04 µM
reduction in IK currents ([5]; at plasma concentration (around 7 µM)): around 58%
V1/2 of activation of Kv currents [6]: −8.08 ± 2.02 mV
